# According to patent US9006426B2, “Squaric acid derivatives as inhibitors of the nicotinamide” (Topotarget A/S, priority 2008, dated 2015):
# Tested on: A2780 cells
# Experiment: In vitro cell proliferation assay (SRB assay)
# Assay type: cell-based
# Conditions: Homo sapiens, 72 h incubation, SRB staining
# Protocol: In Vitro Cell Proliferation Assay (SRB Assay)
# A2780 cells were seeded in 96-well plates at 2000 cells/well in 100 μL of culture medium, 4 wells were left empty for media only controls.
# After 24 h the compound titrations were performed, in a separate dilution plate, by serially diluting the compounds of general formula (I) in culture medium. A 100 μL of each dilution was added to the plated cells, this was done in quadruplicate, and controls (e.g. DMSO and blanks) were included. The plates were incubated for 72 h at 37° C. in a CO2 incubator. 50 μL cold 50% trichloroacetic acid was then added to each well. After 1 h the supernatant was discarded and the wells were washed 5 times with tap water and dried at room temperature. […] Bound stain was subsequently solubilized by addition of 200 μL 10 mM Tris pH 10.5 to each well, and the plates were shaken for at least 30 minutes, and the absorbance read on an automated plate reader at 515 nm. Using the nine absorbance measurements [time zero, (Tz), control growth, (C), and test growth in the presence of drug at the seven concentration levels (Ti)], the percentage growth is calculated at each of the drug concentrations levels after averaging the quadruplet wells. Percentage growth inhibition is calculated as: [(Ti−Tz)/(C−Tz)]×100 for concentrations for which Ti>/=Tz [(Ti−Tz)/Tz]×100 for concentrations for which Ti<Tz. […]
structure (smiles),measurement,value
"O=c1c(NCCCCCCOc2ccc(Cl)cc2)c(Nc2ccncc2)c1=O [SQ-7B, 3-(6-(4-chlorophenoxy)hexylamino)-4-(pyridine-4-ylamino)-cyclobut-3-ene-1,2-dione]",IC50,40 nM
